Results as given in US12662489B2 (Sitryx Therapeutics Limited, priority 2023, dated 2026).

Key:
[1] = target: T1, MTHFD2 recombinant human enzyme (Homo sapiens, UniProt P13995); assay: MTHFD2 inhibition assay (NAD(P)H-Glo luminescence); details: for MTHFD1/MTHFD2 IC50 ratio: selectivity of MTHFD2 inhibition over MTHFD1, band
T1 sequence (P13995 36-350): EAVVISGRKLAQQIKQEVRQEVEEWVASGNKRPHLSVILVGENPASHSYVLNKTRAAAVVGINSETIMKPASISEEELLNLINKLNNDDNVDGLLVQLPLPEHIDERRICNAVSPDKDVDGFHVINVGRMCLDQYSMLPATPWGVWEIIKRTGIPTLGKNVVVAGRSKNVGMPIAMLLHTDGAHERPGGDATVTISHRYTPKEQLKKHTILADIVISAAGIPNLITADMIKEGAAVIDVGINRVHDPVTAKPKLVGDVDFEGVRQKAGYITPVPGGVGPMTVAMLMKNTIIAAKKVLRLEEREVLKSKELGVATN

[2] = target: T2, MTHFD1 recombinant human enzyme (Homo sapiens, UniProt P11586); assay: MTHFD1 inhibition assay (NAD(P)H-Glo luminescence); details: MTHFD1 IC50, recombinant human enzyme 200 nM, NADP, band
T2 sequence (P11586 2-291 limits assumed): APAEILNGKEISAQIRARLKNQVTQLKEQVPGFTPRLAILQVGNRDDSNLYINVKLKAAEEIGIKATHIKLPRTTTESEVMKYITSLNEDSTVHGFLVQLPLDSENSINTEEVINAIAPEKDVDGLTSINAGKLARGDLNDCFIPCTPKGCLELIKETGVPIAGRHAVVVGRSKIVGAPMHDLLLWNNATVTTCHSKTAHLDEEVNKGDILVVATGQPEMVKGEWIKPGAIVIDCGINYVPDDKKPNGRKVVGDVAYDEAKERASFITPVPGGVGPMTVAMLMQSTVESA

| SMILES | IC50 [1] | MTHFD1/MTHFD2 IC50 ratio [1] | IC50 [2] |
| --- | --- | --- | --- |
| COC[C@H]1CN(c2cc(Cl)c3c4c(c(=O)oc3c2C)CN(C(=O)c2cc(N(C)C)c(C(=O)NS(=O)(=O)N3CCC5(COC5)C3)cc2F)CC4)CCN1C [Example 273, (R)-N-((2-oxa-6-azaspiro[3.4]octan-6-yl)sulfonyl)-4-(10-chloro-8-(3-(methoxymethyl)-4-methylpiperazin-1-yl)-7-methyl-5-oxo-1,3,4,5-tetrahydro-2H-chromeno[3,4-c]pyridine-3-carbonyl)-2-(dimethylamino)-5-fluorobenzamide] | 0.01 to 0.1 µM | H (>9.0 to 30) | 0.1 to 1 µM |
| COC[C@H]1CN(c2cc(Cl)c3c4c(c(=O)oc3c2C)CN(C(=O)c2cc(N(C)C)c(C(=O)NS(=O)(=O)N3CCC5(CC5)C3)cc2F)CC4)CCN1C [Example 274, (R)-N-((5-azaspiro[2.4]heptan-5-yl)sulfonyl)-4-(10-chloro-8-(3-(methoxymethyl)-4-methylpiperazin-1-yl)-7-methyl-5-oxo-1,3,4,5-tetrahydro-2H-chromeno[3,4-c]pyridine-3-carbonyl)-2-(dimethylamino)-5-fluorobenzamide] | 0.01 to 0.1 µM | H (>9.0 to 30) | 0.1 to 1 µM |
| COC[C@H]1CN(c2cc(Cl)c3c4c(c(=O)oc3c2C)CN(C(=O)c2cc(N(C)C)c(C(=O)NS(=O)(=O)N3CCCCC3)cc2F)CC4)CCN1C [Example 275, (R)-4-(10-chloro-8-(3-(methoxymethyl)-4-methylpiperazin-1-yl)-7-methyl-5-oxo-1,3,4,5-tetrahydro-2H-chromeno[3,4-c]pyridine-3-carbonyl)-2-(dimethylamino)-5-fluoro-N-(piperidin-1-ylsulfonyl)benzamide] | 0.01 to 0.1 µM | G (^ 3 to 9.0) | 0.1 to 1 µM |
| COC[C@H]1CN(c2cc(Cl)c3c4c(c(=O)oc3c2C)CN(C(=O)c2cc(N(C)C)c(C(=O)NS(=O)(=O)N(C3CC3)C3CC3)cc2F)CC4)CCN1C [Example 277, (R)-4-(10-chloro-8-(3-(methoxymethyl)-4-methylpiperazin-1-yl)-7-methyl-5-oxo-1,3,4,5-tetrahydro-2H-chromeno[3,4-c]pyridine-3-carbonyl)-N-(N,N-dicyclopropylsulfamoyl)-2-(dimethylamino)-5-fluorobenzamide] | 0.01 to 0.1 µM | H (>9.0 to 30) | 0.1 to 1 µM |
| COC[C@H]1CN(c2cc(Cl)c3c4c(c(=O)oc3c2C)CN(C(=O)c2cc(N(C)C)c(C(=O)NS(=O)(=O)N3CCC[C@@H]3C(F)(F)F)cc2F)CC4)CCN1C [Example 278, 4-(10-chloro-8-((R)-3-(methoxymethyl)-4-methylpiperazin-1-yl)-7-methyl-5-oxo-1,3,4,5-tetrahydro-2H-chromeno[3,4-c]pyridine-3-carbonyl)-2-(dimethylamino)-5-fluoro-N-(((R)-2-(trifluoromethyl)pyrrolidin-1-yl)sulfonyl)benzamide] | 0.01 to 0.1 µM | H (>9.0 to 30) | 0.1 to 1 µM |
| COC[C@H]1CN(c2cc(Cl)c3c4c(c(=O)oc3c2C)CN(C(=O)c2ccc(C(=O)NS(=O)(=O)N3CC5(CCC5)C3)c(OC)c2)CC4)CCN1C [Example 279, (R)-N-((2-azaspiro[3.3]heptan-2-yl)sulfonyl)-4-(10-chloro-8-(3-(methoxymethyl)-4-methylpiperazin-1-yl)-7-methyl-5-oxo-1,3,4,5-tetrahydro-2H-chromeno[3,4-c]pyridine-3-carbonyl)-2-methoxybenzamide] | 0.01 to 0.1 µM | H (>9.0 to 30) | 0.1 to 1 µM |
| COC[C@H]1CN(c2cc(Cl)c3c4c(c(=O)oc3c2C)CN(C(=O)c2ccc(C(=O)NS(=O)(=O)N3CC5CC5C3)c(OC)c2)CC4)CCN1C (stereo partly drawn) [Example 280, N-((3-azabicyclo[3.1.0]hexan-3-yl)sulfonyl)-4-(10-chloro-8-((R)-3-(methoxymethyl)-4-methylpiperazin-1-yl)-7-methyl-5-oxo-1,3,4,5-tetrahydro-2H-chromeno[3,4-c]pyridine-3-carbonyl)-2-methoxybenzamide] | 0.01 to 0.1 µM | H (>9.0 to 30) | 0.1 to 1 µM |
| COC[C@H]1CN(c2cc(Cl)c3c4c(c(=O)oc3c2C)CN(C(=O)c2cc(N(C)C)c(C(=O)NS(=O)(=O)N3CC5(COC5)C3)cc2F)CC4)CCN1C [Example 282, (R)-N-((2-oxa-6-azaspiro[3.3]heptan-6-yl)sulfonyl)-4-(10-chloro-8-(3-(methoxymethyl)-4-methylpiperazin-1-yl)-7-methyl-5-oxo-1,3,4,5-tetrahydro-2H-chromeno[3,4-c]pyridine-3-carbonyl)-2-(dimethylamino)-5-fluorobenzamide] | 0.01 to 0.1 µM | H (>9.0 to 30) | 0.1 to 1 µM |
| COC[C@H]1CN(c2cc(Cl)c3c4c(c(=O)oc3c2C)CN(C(=O)c2ccc(C(=O)NS(=O)(=O)N3CCC[C@H]3COC)c(OC)c2)CC4)CCN1C [Example 283, 4-(10-chloro-8-((R)-3-(methoxymethyl)-4-methylpiperazin-1-yl)-7-methyl-5-oxo-1,3,4,5-tetrahydro-2H-chromeno[3,4-c]pyridine-3-carbonyl)-2-methoxy-N-(((S)-2-(methoxymethyl)pyrrolidin-1-yl)sulfonyl)benzamide] | 0.01 to 0.1 µM | H (>9.0 to 30) | 1 to 5 µM |
| COC[C@H]1CN(c2cc(Cl)c3c4c(c(=O)oc3c2C)CN(C(=O)c2cc(N(C)C)c(C(=O)NS(=O)(=O)N3CC[C@H](OC)C3)cc2F)CC4)CCN1C [Example 284, 4-(10-chloro-8-((R)-3-(methoxymethyl)-4-methylpiperazin-1-yl)-7-methyl-5-oxo-1,3,4,5-tetrahydro-2H-chromeno[3,4-c]pyridine-3-carbonyl)-2-(dimethylamino)-5-fluoro-N-(((S)-3-methoxypyrrolidin-1-yl)sulfonyl)benzamide] | 0.01 to 0.1 µM | H (>9.0 to 30) | 0.1 to 1 µM |
| COC[C@H]1CN(c2cc(Cl)c3c4c(c(=O)oc3c2C)CN(C(=O)c2cc(N(C)C)c(C(=O)NS(=O)(=O)N3CC[C@@H](OC)C3)cc2F)CC4)CCN1C [Example 285, 4-(10-chloro-8-((R)-3-(methoxymethyl)-4-methylpiperazin-1-yl)-7-methyl-5-oxo-1,3,4,5-tetrahydro-2H-chromeno[3,4-c]pyridine-3-carbonyl)-2-(dimethylamino)-5-fluoro-N-(((R)-3-methoxypyrrolidin-1-yl)sulfonyl)benzamide] | 0.01 to 0.1 µM | H (>9.0 to 30) | 0.1 to 1 µM |
| COC[C@H]1CN(c2cc(C)c3c4c(c(=O)oc3c2C)CN(C(=O)c2cc(N(C)C)c(C(=O)NS(=O)(=O)N3CCC[C@@H](OC)C3)cc2F)CC4)CCN1C [Example 286, 2-(dimethylamino)-5-fluoro-4-(8-((R)-3-(methoxymethyl)-4-methylpiperazin-1-yl)-7,10-dimethyl-5-oxo-1,3,4,5-tetrahydro-2H-chromeno[3,4-c]pyridine-3-carbonyl)-N-(((R)-3-methoxypiperidin-1-yl)sulfonyl)benzamide] | 0.01 to 0.1 µM | J (>30) | 0.1 to 1 µM |
| COC[C@H]1CN(c2cc(C)c3c4c(c(=O)oc3c2C)CN(C(=O)c2cc(N(C)C)c(C(=O)NS(=O)(=O)N3CCC[C@@H]3C(F)(F)F)cc2F)CC4)CCN1C [Example 287, 2-(dimethylamino)-5-fluoro-4-(8-((R)-3-(methoxymethyl)-4-methylpiperazin-1-yl)-7,10-dimethyl-5-oxo-1,3,4,5-tetrahydro-2H-chromeno[3,4-c]pyridine-3-carbonyl)-N-(((R)-2-(trifluoromethyl)pyrrolidin-1-yl)sulfonyl)benzamide] | 0.01 to 0.1 µM | H (>9.0 to 30) | 0.1 to 1 µM |
| COC[C@H]1CN(c2cc(Cl)c3c4c(c(=O)oc3c2C)CN(C(=O)c2ccc(C(=O)NS(=O)(=O)N3CCC[C@@H]3COC)c(OC)c2)CC4)CCN1C [Example 288, 4-(10-chloro-8-((R)-3-(methoxymethyl)-4-methylpiperazin-1-yl)-7-methyl-5-oxo-1,3,4,5-tetrahydro-2H-chromeno[3,4-c]pyridine-3-carbonyl)-2-methoxy-N-(((R)-2-(methoxymethyl)pyrrolidin-1-yl)sulfonyl)benzamide] | 0.01 to 0.1 µM | J (>30) | 1 to 5 µM |
| COC[C@H]1CN(c2cc(C)c3c4c(c(=O)oc3c2C)CN(C(=O)c2cc(N(C)C)c(C(=O)NS(=O)(=O)N3CCC(OC)CC3)cc2F)CC4)CCN1C [Example 289, (R)-2-(dimethylamino)-5-fluoro-4-(8-(3-(methoxymethyl)-4-methylpiperazin-1-yl)-7,10-dimethyl-5-oxo-1,3,4,5-tetrahydro-2H-chromeno[3,4-c]pyridine-3-carbonyl)-N-((4-methoxypiperidin-1-yl)sulfonyl)benzamide] | 0.01 to 0.1 µM | J (>30) | 0.1 to 1 µM |
